Assay results from patent publication US11007270B2, “Polymer-semaxanib moiety conjugates” (Nektar Therapeutics, priority 2010, dated 2021).

Columns and labels:
c-Kit = c-Kit (Homo sapiens, UniProt P10721); experiment: c-Kit tyrosine kinase inhibition, Caliper screening (fluorescent substrate phosphorylation, electrophoretic separation); assay type: biochemical; conditions: for IC50: averages of replicate wells; for c-Kit Fold: fold of IC50 relative to sunitinib
VEGFR-2 = VEGFR-2 (Homo sapiens, UniProt P35968); experiment: VEGFR-2 kinase inhibition, Caliper screening (fluorescent substrate phosphorylation, electrophoretic separation); conditions: for VEGFR-2 Fold: fold of IC50 relative to sunitinib
Sequence of VEGFR-2 (P35968 20-1356, species assumed): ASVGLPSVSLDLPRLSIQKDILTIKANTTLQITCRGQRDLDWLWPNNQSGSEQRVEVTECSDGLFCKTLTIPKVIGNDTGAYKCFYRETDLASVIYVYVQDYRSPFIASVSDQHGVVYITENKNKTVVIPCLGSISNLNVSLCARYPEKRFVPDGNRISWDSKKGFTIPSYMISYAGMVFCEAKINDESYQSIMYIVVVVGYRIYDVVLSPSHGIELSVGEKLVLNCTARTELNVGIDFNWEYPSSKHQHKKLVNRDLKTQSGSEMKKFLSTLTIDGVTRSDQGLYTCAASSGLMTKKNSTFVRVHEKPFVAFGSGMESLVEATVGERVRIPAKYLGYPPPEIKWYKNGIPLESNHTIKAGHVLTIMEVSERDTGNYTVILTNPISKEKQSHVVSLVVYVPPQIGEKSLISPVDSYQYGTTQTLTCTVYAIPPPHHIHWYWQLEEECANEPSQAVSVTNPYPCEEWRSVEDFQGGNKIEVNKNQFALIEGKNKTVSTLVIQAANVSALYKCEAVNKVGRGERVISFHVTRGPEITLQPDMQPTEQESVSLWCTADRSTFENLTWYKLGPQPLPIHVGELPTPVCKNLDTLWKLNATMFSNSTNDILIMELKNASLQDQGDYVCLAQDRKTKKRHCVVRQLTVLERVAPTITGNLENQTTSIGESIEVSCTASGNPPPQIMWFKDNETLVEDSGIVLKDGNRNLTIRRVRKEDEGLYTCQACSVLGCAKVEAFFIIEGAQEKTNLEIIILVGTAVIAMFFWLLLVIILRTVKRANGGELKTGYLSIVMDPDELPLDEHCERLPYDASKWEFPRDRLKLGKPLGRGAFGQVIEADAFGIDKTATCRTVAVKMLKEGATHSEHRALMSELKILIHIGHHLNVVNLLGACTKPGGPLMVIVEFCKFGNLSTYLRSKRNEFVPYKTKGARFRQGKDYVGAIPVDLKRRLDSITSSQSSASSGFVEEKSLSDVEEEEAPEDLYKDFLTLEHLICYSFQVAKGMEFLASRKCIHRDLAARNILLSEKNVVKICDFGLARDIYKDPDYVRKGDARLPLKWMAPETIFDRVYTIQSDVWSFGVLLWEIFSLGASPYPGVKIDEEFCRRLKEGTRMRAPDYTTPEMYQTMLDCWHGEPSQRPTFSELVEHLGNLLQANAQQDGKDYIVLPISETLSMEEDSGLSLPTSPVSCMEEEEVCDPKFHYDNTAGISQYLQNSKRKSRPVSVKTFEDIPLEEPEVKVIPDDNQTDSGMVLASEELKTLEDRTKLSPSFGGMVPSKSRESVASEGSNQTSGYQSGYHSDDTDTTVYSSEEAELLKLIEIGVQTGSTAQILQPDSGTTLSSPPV

RET = RET (Homo sapiens, UniProt P07949); experiment: RET kinase inhibition, Caliper screening (fluorescent substrate phosphorylation, electrophoretic separation); conditions: for RET Fold: fold of IC50 relative to sunitinib
Sequence of RET (P07949 29-1114, species assumed): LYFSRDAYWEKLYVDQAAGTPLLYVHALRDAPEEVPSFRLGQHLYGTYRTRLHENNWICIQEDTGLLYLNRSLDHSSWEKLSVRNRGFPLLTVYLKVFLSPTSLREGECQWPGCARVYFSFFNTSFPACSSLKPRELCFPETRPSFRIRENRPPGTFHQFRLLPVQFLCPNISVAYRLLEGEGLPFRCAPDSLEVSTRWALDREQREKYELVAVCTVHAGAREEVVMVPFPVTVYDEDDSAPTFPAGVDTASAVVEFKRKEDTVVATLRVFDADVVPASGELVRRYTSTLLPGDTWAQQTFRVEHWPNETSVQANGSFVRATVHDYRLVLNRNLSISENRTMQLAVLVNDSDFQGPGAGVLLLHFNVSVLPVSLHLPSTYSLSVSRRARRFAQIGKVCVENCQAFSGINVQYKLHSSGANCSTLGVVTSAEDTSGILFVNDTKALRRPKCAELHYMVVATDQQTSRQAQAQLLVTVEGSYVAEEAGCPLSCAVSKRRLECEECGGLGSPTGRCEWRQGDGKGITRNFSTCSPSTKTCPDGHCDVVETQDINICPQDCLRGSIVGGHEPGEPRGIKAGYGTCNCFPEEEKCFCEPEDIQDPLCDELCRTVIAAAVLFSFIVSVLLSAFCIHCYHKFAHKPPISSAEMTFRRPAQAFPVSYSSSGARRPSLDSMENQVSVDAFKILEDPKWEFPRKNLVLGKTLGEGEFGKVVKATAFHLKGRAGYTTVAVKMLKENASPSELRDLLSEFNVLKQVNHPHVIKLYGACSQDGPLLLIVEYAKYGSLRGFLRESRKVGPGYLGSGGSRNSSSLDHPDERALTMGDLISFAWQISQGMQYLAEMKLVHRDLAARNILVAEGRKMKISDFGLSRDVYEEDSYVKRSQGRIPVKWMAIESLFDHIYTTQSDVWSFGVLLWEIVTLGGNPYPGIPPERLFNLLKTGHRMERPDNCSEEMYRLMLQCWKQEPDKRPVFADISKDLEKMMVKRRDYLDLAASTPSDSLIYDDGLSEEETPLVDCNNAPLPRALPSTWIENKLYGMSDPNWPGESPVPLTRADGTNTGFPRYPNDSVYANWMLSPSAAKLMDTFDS

[1] = concentration 1.0E−05 (unit not given)
[2] = concentration 1.0E−06 (unit not given)
[3] = concentration 1.0E−07 (unit not given)
[4] = concentration 1.0E−08 (unit not given)
[5] = concentration 1.0E−09 (unit not given)
[6] = concentration 1.0E−10 (unit not given)
[7] = concentration 3.0E−05 (unit not given)
[8] = concentration 3.0E−06 (unit not given)
[9] = concentration 3.0E−07 (unit not given)
[10] = concentration 3.0E−08 (unit not given)
[11] = concentration 3.0E−09 (unit not given)
[12] = concentration 3.0E−10 (unit not given)

Sequence of c-Kit (P10721 26-976): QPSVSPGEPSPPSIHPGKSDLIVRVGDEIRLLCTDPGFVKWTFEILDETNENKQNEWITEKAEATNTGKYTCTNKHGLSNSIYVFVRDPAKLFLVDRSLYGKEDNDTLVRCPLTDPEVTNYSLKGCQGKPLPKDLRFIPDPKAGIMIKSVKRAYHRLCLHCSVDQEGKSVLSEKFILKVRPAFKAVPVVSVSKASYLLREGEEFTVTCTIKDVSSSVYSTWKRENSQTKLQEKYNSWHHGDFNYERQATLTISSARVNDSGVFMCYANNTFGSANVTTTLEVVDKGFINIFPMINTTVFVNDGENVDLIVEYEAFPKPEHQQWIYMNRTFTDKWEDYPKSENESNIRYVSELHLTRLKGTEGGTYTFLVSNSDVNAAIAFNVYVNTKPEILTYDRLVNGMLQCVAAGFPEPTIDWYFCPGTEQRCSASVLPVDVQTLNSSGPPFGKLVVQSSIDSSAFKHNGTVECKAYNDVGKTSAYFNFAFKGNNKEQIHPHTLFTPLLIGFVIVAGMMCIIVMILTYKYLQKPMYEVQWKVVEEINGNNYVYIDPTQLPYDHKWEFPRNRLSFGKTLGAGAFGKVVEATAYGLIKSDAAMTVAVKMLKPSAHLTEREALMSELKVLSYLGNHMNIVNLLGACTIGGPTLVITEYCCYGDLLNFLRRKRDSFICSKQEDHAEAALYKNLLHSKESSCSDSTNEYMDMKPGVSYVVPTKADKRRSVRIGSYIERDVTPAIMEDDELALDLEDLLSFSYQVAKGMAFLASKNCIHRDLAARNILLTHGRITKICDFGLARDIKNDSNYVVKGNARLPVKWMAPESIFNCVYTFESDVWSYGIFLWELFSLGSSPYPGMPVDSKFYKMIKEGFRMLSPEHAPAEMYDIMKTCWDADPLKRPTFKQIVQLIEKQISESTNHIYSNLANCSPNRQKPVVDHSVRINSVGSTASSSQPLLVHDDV

COCCOCCOCCOCCOCCOCCOCCOCCOCCNC(=O)c1c(C)[nH]c(/C=C2\C(=O)Nc3ccc(F)cc32)c1C [mPEG9-semaxanib, (Z)-5-((5-fluoro-2-oxoindolin-3-ylidene)methyl)-2,4-dimethyl-1H-pyrrole-3-mPEG8-amide]
IC50 (c-Kit): 0.39 µM | c-Kit AVG % Activity at Specific Concentration (c-Kit; [1]): 0% | c-Kit AVG % Activity at Specific Concentration (c-Kit; [2]): 16% | c-Kit AVG % Activity at Specific Concentration (c-Kit; [3]): 90% | c-Kit AVG % Activity at Specific Concentration (c-Kit; [4]): 102% | c-Kit AVG % Activity at Specific Concentration (c-Kit; [5]): 105% | c-Kit AVG % Activity at Specific Concentration (c-Kit; [6]): 95% | c-Kit AVG % Activity at Specific Concentration (c-Kit; [7]): −1% | c-Kit AVG % Activity at Specific Concentration (c-Kit; [8]): 2% | c-Kit AVG % Activity at Specific Concentration (c-Kit; [9]): 60% | c-Kit AVG % Activity at Specific Concentration (c-Kit; [10]): 100% | c-Kit AVG % Activity at Specific Concentration (c-Kit; [11]): 105% | c-Kit AVG % Activity at Specific Concentration (c-Kit; [12]): 102% | c-Kit Fold (c-Kit): 5.30 | IC50 (VEGFR-2): 0.3 µM | VEGFR-2 AVG % Activity at Specific Concentration (VEGFR-2; [1]): 1% | VEGFR-2 AVG % Activity at Specific Concentration (VEGFR-2; [2]): 20% | VEGFR-2 AVG % Activity at Specific Concentration (VEGFR-2; [3]): 61% | VEGFR-2 AVG % Activity at Specific Concentration (VEGFR-2; [4]): 77% | VEGFR-2 AVG % Activity at Specific Concentration (VEGFR-2; [5]): 84% | VEGFR-2 AVG % Activity at Specific Concentration (VEGFR-2; [6]): 89% | VEGFR-2 AVG % Activity at Specific Concentration (VEGFR-2; [7]): −1% | VEGFR-2 AVG % Activity at Specific Concentration (VEGFR-2; [8]): 8% | VEGFR-2 AVG % Activity at Specific Concentration (VEGFR-2; [9]): 46% | VEGFR-2 AVG % Activity at Specific Concentration (VEGFR-2; [10]): 71% | VEGFR-2 AVG % Activity at Specific Concentration (VEGFR-2; [11]): 84% | VEGFR-2 AVG % Activity at Specific Concentration (VEGFR-2; [12]): 84% | VEGFR-2 Fold (VEGFR-2): 6.12 | IC50 (RET): 0.87 µM | RET AVG % Activity at Specific Concentration (RET; [1]): 5% | RET AVG % Activity at Specific Concentration (RET; [2]): 49% | RET AVG % Activity at Specific Concentration (RET; [3]): 90% | RET AVG % Activity at Specific Concentration (RET; [4]): 105% | RET AVG % Activity at Specific Concentration (RET; [5]): 104% | RET AVG % Activity at Specific Concentration (RET; [6]): 100% | RET AVG % Activity at Specific Concentration (RET; [7]): 0% | RET AVG % Activity at Specific Concentration (RET; [8]): 21% | RET AVG % Activity at Specific Concentration (RET; [9]): 74% | RET AVG % Activity at Specific Concentration (RET; [10]): 96% | RET AVG % Activity at Specific Concentration (RET; [11]): 101% | RET AVG % Activity at Specific Concentration (RET; [12]): 97% | RET Fold (RET): 20.23

COCCOCCOCCOCCOCCOCCOCCNC(=O)c1c(C)[nH]c(/C=C2\C(=O)Nc3ccc(F)cc32)c1C [mPEG7-semaxanib, (Z)-5-((5-fluoro-2-oxoindolin-3-ylidene)methyl)-2,4-dimethyl-1H-pyrrole-3-mPEG7-amide]
IC50 (c-Kit): 0.32 µM | c-Kit AVG % Activity at Specific Concentration (c-Kit; [1]): −1% | c-Kit AVG % Activity at Specific Concentration (c-Kit; [2]): 11% | c-Kit AVG % Activity at Specific Concentration (c-Kit; [3]): 82% | c-Kit AVG % Activity at Specific Concentration (c-Kit; [4]): 96% | c-Kit AVG % Activity at Specific Concentration (c-Kit; [5]): 97% | c-Kit AVG % Activity at Specific Concentration (c-Kit; [6]): 97% | c-Kit AVG % Activity at Specific Concentration (c-Kit; [7]): −1% | c-Kit AVG % Activity at Specific Concentration (c-Kit; [8]): 1% | c-Kit AVG % Activity at Specific Concentration (c-Kit; [9]): 49% | c-Kit AVG % Activity at Specific Concentration (c-Kit; [10]): 96% | c-Kit AVG % Activity at Specific Concentration (c-Kit; [11]): 98% | c-Kit AVG % Activity at Specific Concentration (c-Kit; [12]): 96% | c-Kit Fold (c-Kit): 4.30 | IC50 (VEGFR-2): 0.31 µM | VEGFR-2 AVG % Activity at Specific Concentration (VEGFR-2; [1]): −3% | VEGFR-2 AVG % Activity at Specific Concentration (VEGFR-2; [2]): 19% | VEGFR-2 AVG % Activity at Specific Concentration (VEGFR-2; [3]): 80% | VEGFR-2 AVG % Activity at Specific Concentration (VEGFR-2; [4]): 95% | VEGFR-2 AVG % Activity at Specific Concentration (VEGFR-2; [5]): 95% | VEGFR-2 AVG % Activity at Specific Concentration (VEGFR-2; [6]): 98% | VEGFR-2 AVG % Activity at Specific Concentration (VEGFR-2; [7]): −6% | VEGFR-2 AVG % Activity at Specific Concentration (VEGFR-2; [8]): 0% | VEGFR-2 AVG % Activity at Specific Concentration (VEGFR-2; [9]): 46% | VEGFR-2 AVG % Activity at Specific Concentration (VEGFR-2; [10]): 90% | VEGFR-2 AVG % Activity at Specific Concentration (VEGFR-2; [11]): 93% | VEGFR-2 AVG % Activity at Specific Concentration (VEGFR-2; [12]): 94% | VEGFR-2 Fold (VEGFR-2): 6.33 | IC50 (RET): 0.62 µM | RET AVG % Activity at Specific Concentration (RET; [1]): 2% | RET AVG % Activity at Specific Concentration (RET; [2]): 38% | RET AVG % Activity at Specific Concentration (RET; [3]): 85% | RET AVG % Activity at Specific Concentration (RET; [4]): 98% | RET AVG % Activity at Specific Concentration (RET; [5]): 99% | RET AVG % Activity at Specific Concentration (RET; [6]): 98% | RET AVG % Activity at Specific Concentration (RET; [7]): 0% | RET AVG % Activity at Specific Concentration (RET; [8]): 14% | RET AVG % Activity at Specific Concentration (RET; [9]): 68% | RET AVG % Activity at Specific Concentration (RET; [10]): 93% | RET AVG % Activity at Specific Concentration (RET; [11]): 99% | RET AVG % Activity at Specific Concentration (RET; [12]): 98% | RET Fold (RET): 14.42
